The source of these data is paper PMC2410218, “Identification of an HLA-A^*0201-restricted T-cell epitope derived from the prostate cancer-associated protein prostein” (British Journal of Cancer, 2004).

Data set [1] concerns the target T1, HLA-A^*0201 (Homo sapiens, UniProt P04439, D140Y/D185E/D98H/E176V/E277Q/G131W/G231S/I119V/I121R/I166T/I218V/L300P/L318F/N151K/N90K/P208A/P217A/Q86G/Q94H/R138H/R169H/T345S).
T1 construct: endogenous in cells; host or cells: B-cell lines LCL721 or JY
Nature of the data set: Fluorescence-based competition assay on B-cell lines LCL721 or JY. To be noted: inhibition of binding of reporter peptide ILK(FITC)EPVHGV relative to positive control peptide YLLPAIVHI set as 100%; all peptides at 10 μM; LCL721 or JY cells, no acid strip; flow cytometry. The method, then: Binding studies of potential HLA-A^*0201 fitting peptides were carried out using the B-cell lines LCL721 or JY and a fluorescence-based competition assay, essentially as described by [van der Burg et al (1995)], but without performing acid strip. Reporter peptide was ILK(FITC)EPVHGV from HIV-1 reverse transcriptase and positive control was […] from RNA helicase p72. Fluorescence intensities were recorded by flow cytometry (FACSCALIBUR; Becton Dickinson, Heidelberg, Germany).

In data set [2] the test system is LNCaP 1740 cells. Nature of the data set: 51Cr release assay: peptide-activated CD8+ T cells against LNCaP 1740 cells. It counts as cell-based, human. The method, then:
(§1) Briefly, LNCaP 1740 cells were cultured for 24 h in phenol red-free RPMI (Life Technologies) supplemented with 1% nonessential amino acids, 10 mM HEPES (Life Technologies) and 10% charcoal-stripped FCS (Biochrom). The cultivation was continued for additional 48 h in the androgen-depleted medium or in the presence of 1 nM of the synthetic androgen R1881 (Perkin-Elmer Life Sciences, Rodgau-Jügesheim, Germany). Subsequently, the cells were harvested and were used as target cells in a chromium release assay.
After washing 2 × 10^5 peptide-loaded DCs were cocultured with 2 × 10^6 immunomagnetically isolated CD8+ T cells well^−1 of a 24-well tissue culture plate (Greiner, Frickenhausen, Germany). […] After 7 days, cultures were washed and restimulated with peptide-loaded DCs at a responder to stimulator ratio of 5 : 1. After three rounds of weekly restimulation, the cultures were tested for the presence of prostein-specific CTLs.
The HLA-A2 restriction of CD8+ T-cell-mediated lysis was tested at an effector cell to target cell ratio of 30 : 1 in the presence of the anti-HLA-A2 monoclonal antibody derived from the MA2.1 hybridoma (American Type Culture Collection) at a final concentration of 1 μg ml^−1.

For data set [3], the system named is T2 cells pulsed with the individual peptides. Description: 51Cr release assay: in vitro-stimulated CD8+ T cells against peptide-pulsed T2 cells. It counts as cell-based, human. The note with it: CD8+ T cells stimulated four times with peptide-pulsed autologous DCs (20 μg ml^-1 of each peptide); T2 cells pulsed at 50 μg ml^-1; E:T 20:1; 4 h 51Cr release; triplicates. Here is the method: Briefly, peripheral blood mononuclear cells were prepared from blood samples by Ficoll–Hypaque (Biochrom) density centrifugation. Monocytes were isolated by immunomagnetic cell separation with an anti-CD14 antibody coupled to paramagnetic microbeads (Miltenyi Biotech, Bergisch Gladbach, Germany) according to the manufacturer's instructions. Mature monocyte-derived dendritic cells (DCs) were generated as described previously ([Schmitz et al, 2000]).
After washing 2 × 10^5 peptide-loaded DCs were cocultured with 2 × 10^6 immunomagnetically isolated CD8+ T cells well^−1 of a 24-well tissue culture plate (Greiner, Frickenhausen, Germany). […] The T cells were cultured in 2 ml RPMI 1640 medium well^−1 supplemented with 10% human serum (CCpro, Neustadt, Germany), 100 U ml^−1 IL-2 and 10 ng ml^−1 IL-7 (both from Strathmann Biotech, Hanover, Germany). After 7 days, cultures were washed and restimulated with peptide-loaded DCs at a responder to stimulator ratio of 5 : 1. After three rounds of weekly restimulation, the cultures were tested for the presence of prostein-specific CTLs. […]

Data set [4] concerns K562 cells. Nature of the data set: 51Cr release assay: peptide-activated CD8+ T cells against K562 cells. To be noted: E:T 3:1, 10:1, 30:1; 4 h 51Cr release. It counts as cell-based, human. The method, then:
After washing 2 × 10^5 peptide-loaded DCs were cocultured with 2 × 10^6 immunomagnetically isolated CD8+ T cells well^−1 of a 24-well tissue culture plate (Greiner, Frickenhausen, Germany). […] The T cells were cultured in 2 ml RPMI 1640 medium well^−1 supplemented with 10% human serum (CCpro, Neustadt, Germany), 100 U ml^−1 IL-2 and 10 ng ml^−1 IL-7 (both from Strathmann Biotech, Hanover, Germany). After 7 days, cultures were washed and restimulated with peptide-loaded DCs at a responder to stimulator ratio of 5 : 1. After three rounds of weekly restimulation, the cultures were tested for the presence of prostein-specific CTLs.
Cytotoxic activity of the in vitro-stimulated CTLs was assayed against the HLA-A^*0201-positive mutant cell line T2 pulsed with the individual prostein-derived peptides or an irrelevant HLA-A^*0201-binding peptide from HIV-1 reverse transcriptase at a concentration of 50 μg ml^−1, against the PCa cell line LNCaP 1740, the melanoma cell line 93.04A12.1 and against K562 cells as targets in a 4 h standard ^51Cr release assay as described previously ([Kiessling et al, 2002]). The HLA-A2 restriction of CD8+ T-cell-mediated lysis was tested at an effector cell to target cell ratio of 30 : 1 in the presence of the anti-HLA-A2 monoclonal antibody derived from the MA2.1 hybridoma (American Type Culture Collection) at a final concentration of 1 μg ml^−1.

For data set [5], the system named is prostein mRNA expression in LNCaP 1740 cells. Description: Quantitative RT-PCR of prostein transcripts in LNCaP 1740 cells under androgen deprivation or stimulation. The format is cell-based, human. To be noted: 1 nM R1881 for 48 h; real-time PCR normalised to HPRT; means of two LC runs. Here is the method:
as §1, with “The androgen deprivation and stimulation experiments were performed as described previously ([Xu et al, 2001]). Briefly,” for “Briefly,”
The mRNA quantity of prostein was determined using a LightCycler (LC)-based real-time PCR protocol based on SYBR Green I detection (LC – FastStart DNA Master SYBR Green I; Roche Diagnostics, Mannheim, Germany) and the primer pair Prostein_N1 (5′-[…]-3′) and Prostein_C1 (5′-[…]-3′) to amplify a 240 bp cDNA fragment spanning two exons.
The mRNA copy number was adjusted to the RT–PCR product quantity of hypoxanthine phosphoribosyltransferase (HPRT) determined by LC technique using the primer pair HPRT_N1 (5′-[…]-3′) and HPRT_C1 (5′-[…]-3′) for the amplification of a 238 bp fragment. […]
(In qPCR the cycle at which signal appears reflects the starting amount.)

As for ALLPRLHQL [compound 1487], the “rBA (%) relative binding affinity” value in data set [1] is recorded as 84.1%.

CLAAGITYV [compound 2004]: in data set [2] (HLA-A*0201-positive, prostein-expressing PCa cell line, E:T 3:1, 10:1, 30:1, 4 h 51Cr release, three donors), the “Lysis of LNCaP 1740 cells by CTLs specifically recognising the peptide” value is “capable of lysing”. Besides, the “Induction of peptide-specific CTLs (specific lysis of peptide-loaded T2 cells)” value in data set [3] was “induced specific CTLs in all three donors tested”. Further, in data set [1], the “rBA (%) relative binding affinity” value came to 94.0%. Also, the “Lysis of K562 cells by peptide-activated T cells (natural killer cell-like activity)” value in data set [4] is on record as “failure”.

Turning to `C[C@]1(O)CC[C@H]2[C@@H]3CCC4=CC(=O)CCC4=C3C=C[C@@]21C` [R1881, reference compound], the “T-cell-mediated cytotoxicity against LNCaP 1740 cells deprived of androgen compared with cells grown in the presence of R1881” value in data set [2] (1 nM R1881 for 48 h after 24 h in charcoal-stripped FCS medium, E:T 30:1, all three donors) was “clearly reduced”. Besides, in data set [5], the “Prostein mRNA expression in LNCaP 1740 under androgen deprivation compared with cells cultured in the presence of R1881” value is recorded as “downregulated but still detectable”.
